Numbering of substitutions follows the chain as printed.
How the values were obtained:
FLT3 D835Y = biological target: T1, FLT3 D835Y (Homo sapiens, UniProt P36888, D835Y); experiment: DiscoverX KINOMEscan competition binding assay, FLT3 D835Y
T1 construct: purchased DiscoverX (KINOMEscan); host or cells: E. coli (T7 phage) or HEK-293
T1 sequence (P36888 27-993 D835Y): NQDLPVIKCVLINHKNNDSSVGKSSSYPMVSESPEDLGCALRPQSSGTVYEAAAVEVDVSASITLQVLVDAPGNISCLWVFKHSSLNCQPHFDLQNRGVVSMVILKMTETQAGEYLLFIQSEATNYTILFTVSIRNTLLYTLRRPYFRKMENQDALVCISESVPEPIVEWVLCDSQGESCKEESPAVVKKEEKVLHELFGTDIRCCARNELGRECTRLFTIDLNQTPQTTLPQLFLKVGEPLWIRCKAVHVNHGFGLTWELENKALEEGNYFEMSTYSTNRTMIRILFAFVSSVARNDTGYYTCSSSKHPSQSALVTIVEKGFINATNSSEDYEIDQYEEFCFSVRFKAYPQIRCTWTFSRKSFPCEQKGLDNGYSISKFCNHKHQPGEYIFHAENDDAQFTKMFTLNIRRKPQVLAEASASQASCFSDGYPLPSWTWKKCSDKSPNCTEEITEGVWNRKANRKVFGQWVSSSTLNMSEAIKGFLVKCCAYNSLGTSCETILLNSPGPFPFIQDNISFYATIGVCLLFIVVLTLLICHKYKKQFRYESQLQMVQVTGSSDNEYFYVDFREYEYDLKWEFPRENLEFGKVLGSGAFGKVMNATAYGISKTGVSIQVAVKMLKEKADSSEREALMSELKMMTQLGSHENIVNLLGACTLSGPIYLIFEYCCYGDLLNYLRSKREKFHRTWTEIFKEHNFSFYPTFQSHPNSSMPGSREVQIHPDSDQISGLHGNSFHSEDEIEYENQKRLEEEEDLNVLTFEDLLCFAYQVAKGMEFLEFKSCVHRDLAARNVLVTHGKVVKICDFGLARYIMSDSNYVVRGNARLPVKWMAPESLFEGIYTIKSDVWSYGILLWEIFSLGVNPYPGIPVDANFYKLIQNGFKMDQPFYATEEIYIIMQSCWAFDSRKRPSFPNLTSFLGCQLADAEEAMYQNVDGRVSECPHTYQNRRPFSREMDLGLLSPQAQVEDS
Excerpt: (§1) Kinase binding data were obtained for various exemplary compounds prepared according to Examples 1-25 using the DiscoverX KINOMEscan® active site-directed competition binding site-directed assay protocol described below. […] As a result, the data report thermodynamic interaction affinities (Kd values), rather than IC50 values that are dependent on ATP concentrations. The assay uses a DNA-tagged version of the protein kinase, and an immobilized ligand bound to a solid support. Compounds that directly or indirectly prevent kinase binding to the immobilized ligand reduce the amount of kinase captured on the solid support, which is detected using an ultra-sensitive qPCR method. Affinity constants reported from the assay have been reported to be independent of the immobilized ligand used that is coupled to the solid support (See supplemental information in Fabian, M. A. et. al., (2005) Nat. Biotechnol. 23, 329-336; Wodicka, L. M. et. al., (2010) Chem. Biol. 17, 1241-1249.)
(§2) Kinase-tagged T7 phage strains were prepared in an E. coli host derived from the BL21 strain. E. coli were grown to log-phase and infected with T7 phage and incubated with shaking at 32° C. until lysis. The lysates were centrifuged and filtered to remove cell debris. The remaining kinases were produced in HEK-293 cells and subsequently tagged with DNA for qPCR detection. […] The liganded beads were blocked with excess biotin and washed with blocking buffer (SeaBlock (Pierce), 1% BSA, 0.05% Tween 20, 1 mM DTT) to remove unbound ligand and to reduce non-specific binding. […] Test compounds were prepared as 111× stocks in 100% DMSO. Kds were determined using an 11-point 3-fold compound dilution series with three DMSO control points. […] The compounds were then diluted directly into the assays such that the final concentration of DMSO was 0.9%. All reactions were performed in polypropylene 384-well plates. Each was a final volume of 0.02 mL. […] The kinase concentration in the eluates was measured by qPCR.
(§3) Binding constants (Kds) were calculated with a standard dose-response curve using the Hill equation. […]

FLT3 R834Q = biological target: T2, FLT3 R834Q (Homo sapiens, UniProt P36888, R834Q); experiment: DiscoverX KINOMEscan competition binding assay, FLT3 R834Q
T2 construct: purchased DiscoverX (KINOMEscan); host or cells: E. coli (T7 phage) or HEK-293
T2 sequence (P36888 27-993 R834Q): T1 sequence (P36888 27-993 D835Y) with R808Q, Y809D
Excerpt: as §1, §2, §3

SMILES | Kd (FLT3 D835Y) | Kd (FLT3 R834Q)
COc1cc2ncc(-c3cccc(N[C@@H]4CCNC4)n3)n2nc1C1CC1 [Compound 97, (R)-6-(6-cyclopropyl-7-methoxyimidazo[1,2-b]pyridazin-3-yl)-N-(pyrrolidin-3-yl)pyridin-2-amine] | 0.063 nM | 0.8 nM
COc1cc2ncc(-c3cccc(N[C@H]4CNC[C@@H]4F)n3)n2nc1C1CC1 [Compound 96, 6-(6-cyclopropyl-7-methoxyimidazo[1,2-b]pyridazin-3-yl)-N-((3S,4S)-4-fluoropyrrolidin-3-yl)pyridin-2-amine] | 0.46 nM | 1.6 nM
COc1cc2ncc(-c3cccc(N[C@H]4CNCC[C@@H]4F)n3)n2nc1C1CC1 [Compound 102, 6-(6-cyclopropyl-7-methoxyimidazo[1,2-b]pyridazin-3-yl)-N-((3S,4S)-4-fluoropiperidin-3-yl)pyridin-2-amine] | 0.16 nM | 0.61 nM

— US12534469B2 (CHILDREN'S HOSPITAL MEDICAL CENTER, priority 2020, dated 2026)
